Laboratory results as given in US6489358B2, “Pharmaceutical compositions containing mupirocin” (Agis Industries (1983) Ltd., priority 2000, dated 2002).

Assays:
[1] = Solubility of 2% solutions (calculated as free acid) in pharmaceutically acceptable hydrophilic solvents; type: physicochemical
Description: The following table presents the solubility of mupirocin calcium amorphous, compared to the solubility of the crystalline form, in various pharmaceutically acceptable hydrophilic solvents. We prepared 2% solutions (calculated as free acid), similar to the commercially available products.

[2] = Stability of 2% solution on heating (Δ % impurities); type: physicochemical
Experimental: The stability of Mupirocin Calcium amorphous in various acceptable pharmaceutical solvents was tested by heating a 2% solution to 80° C. for 24 hours or by heating it to 40° for 1 month. Bactroban cream was used as a reference.

[3] = from U.S Pat. No. 4,916,155; cited from earlier work
[4] = 2% solution (calculated as free acid) in Glycerine
[5] = 2% solution (calculated as free acid) in Hexylene glycol
[6] = 2% solution in Propylene Glycol

Compound | Solubility (After heating for 30 min. at 70° C.) [1, 4] | Solubility (at room temperature) [1, 4] | Solubility (at room temperature) [1, 5] | Solubility in hydrophilic solvents compared with the crystalline form ([1]; hydrophilic solvents) | Δ % impurities (after heating for 1 month at 40° C.) ([2]; 2% solution in Glycerine) [%] | Δ % impurities (after heating for 24 h at 80° C.) ([2]; 2% solution in Glycerine) [%] | Δ % impurities (after heating for 1 month at 40° C.) ([2]; 2% solution in Hexylene Glycol) [%] | Δ % impurities (after heating for 24 h at 80° C.) ([2]; 2% solution in Hexylene Glycol) [%] | Δ % impurities (after heating for 1 month at 40° C.) [2, 6] [%] | Δ % impurities (after heating for 24 h at 80° C.) [2, 6] [%] | Δ % impurities (after heating for 1 month at 40° C.) ([2]; 2% solution in Water) [%] | Δ % impurities (after heating for 24 h at 80° C.) ([2]; 2% solution in Water) [%] | Stability of the solution ([2]; solution in hexylene glycol) | Solubility (After heating for 30 min. at 70° C.) ([1]; 2% solution (calculated as free acid) in Glycerine, calcium dihydrate) | Solubility (After heating for 30 min. at 70° C.) [1, 5] | Solubility (at room temperature) ([1]; 2% solution (calculated as free acid) in Hexylene glycol, calcium dihydrate) | Solubility (at room temperature) ([1]; 2% solution (calculated as free acid) in Propylene glycol, calcium dihydrate) | Solubility (After heating for 30 min. at 70° C.) ([1]; 2% solution (calculated as free acid) in Water) | Solubility (at room temperature) ([1]; 2% solution (calculated as free acid) in Water, calcium dihydrate) | Solubility in water [3]
C/C(=C\C(=O)OCCCCCCCCC(=O)[O-])C[C@@H]1OC[C@H](C[C@@H]2O[C@H]2[C@@H](C)[C@H](C)O)[C@@H](O)[C@H]1O.C/C(=C\C(=O)OCCCCCCCCC(=O)[O-])C[C@@H]1OC[C@H](C[C@@H]2O[C@H]2[C@@H](C)[C@H](C)O)[C@@H](O)[C@H]1O.O.O.[Ca+2] [Mupirocin Ca amorphous, amorphous calcium mupirocin] | Soluble | Not soluble | Soluble | much more soluble in hydrophilic solvents | 29.2 | 29.4 | 1.5 | 2 | 7.5 | 8.7 | 36.7 | 36.4 | good stability | – | – | – | – | – | – | –
C/C(=C\C(=O)OCCCCCCCCC(=O)[O-])C[C@@H]1OC[C@H](C[C@@H]2O[C@H]2[C@@H](C)[C@H](C)O)[C@@H](O)[C@H]1O.C/C(=C\C(=O)OCCCCCCCCC(=O)[O-])C[C@@H]1OC[C@H](C[C@@H]2O[C@H]2[C@@H](C)[C@H](C)O)[C@@H](O)[C@H]1O.O.O.[Ca+2] [Mupirocin Ca crystalline, crystalline Mupirocin calcium dihydrate] | – | – | – | – | – | – | – | – | – | – | – | – | – | Partially soluble | Not soluble | Not soluble | Soluble | Not soluble | Not soluble | poor solubility in water
